From patent US20180185431A1, “HOVENIAE SEMEN CUM FRUCTRUS EXTRACT COMPOSITIONS AND METHOD OF USE” (ARIBIO Co., Ltd., priority 2016, published 2018)

Columns and labels:
HepG2 cells = test: MTT assay, tBHP-induced cytotoxicity (cytoprotection); assay type: cell-based, human; conditions: SFN 30 M pretreatment, 150 M tBHP
[1] = tested on: ARE (Nrf2), pGL4.37 transfected HepG2 cells; test: ARE-driven luciferase reporter gene assay (Nrf2 transactivation); assay type: cell-based, human; conditions: SFN 30 M
Procedure: To examine the possibility that ARE activation by Nrf2 is associated with HSCF extracts-mediated cytoprotection, pGL4.37 tranfected HepG2 cells (5×10^5 cells/well) were plated in 12-well overnight, serum starved for 12 hrs, and then subsequently exposed to 30-1000 μg/ml HSCF extracts for 18 hrs. ARE-driven luciferase activity was measured in the cell treated with HSCF extracts. […] The relative ARE-luciferase activities were 1.39±0.88, 1.62±1.08, 1.91±1.22, and 3.25±0.88 in […] HSCF extracts treated cells, respectively (FIG. 3).
ARE-driven reporter gene construct, pGL4.37 [luc2P/ARE/Hygro] was obtained from promega (Madison, Wis., USA). HepG2 cells were stably transfected with pGL4.37 plasmid using Fugene HD (Promega, Madison, Wis., USA) according to manufacturer's instruction and 80 µg/mL hygromycin was added to select the resistant colonies. The resistant colonies were pooled and used for reporter gene analysis. […] Luciferase activities in cell lysates were measured by adding luciferase assay reagent (Promega, Madison, Wis., USA) using […] automatic multimode reader (Model Infinite 200 PRO; Tecan, Männedorf, Switzerland). The relative luciferase activity was calculated as the relative change to protein content determined by bicinchoninic acid (BCA) method.

With `C[S+]([O-])CCCCN=C=S` (centres unmarked) [SFN, Sulforaphane] the “protection from tBHP-mediated cell death” value (HepG2 cells) was “significantly protected from tBHP-mediated cell death” and the ARE-driven luciferase activity [1] was “significantly increased luciferase activity”.
